Measurements: publication PMC11239005, “Preclinical studies of RA475, a guanidine-substituted spirocyclic candidate RPN13/ADRM1 inhibitor for treatment of ovarian cancer” (PLOS ONE, 2024)

Tested on: 4UbFL in HCC1806 cells
Assay: 4UbFL reporter assay, HCC1806
Type: cell-based
Settings: HCC1806 stably expressing 4UbFL, 4 h
Description: Sub-confluent cultures of cells were transfected with 4UbFL plasmid using TransIT 2020 reagent (Mirus Bio). Cells were seeded at 10,000 cells/well in 96-well plates 48 h post transfection, and incubated with compounds or vehicle (DMSO) at the doses and for the times indicated. Luciferase activity in cell lysate was determined with a luciferase assay kit (Promega) according to the manufacturer’s instructions. Bioluminescence was measured using a Glomax Multidetection system (Promega).
Fig 3 Impact of RA475 on proteasome function. […] Actin was used as loading control. […] After a 4 h incubation, the cells were lysed and the luciferase activity in each cell lysate was determined with a luciferase assay kit (Promega) according to the manufacturer’s instructions. Bioluminescence was measured by using a luminometer (Glomax Multidetection system, Promega) E) A patch was shaved of hair on one leg of CD-1 mice, and 10 μg 4UbFL plasmid in 20 μL of PBS was injected into the quadriceps femoralis muscle followed immediately by injection of the 2 Needle Array to 5 mm depth encompassing the injection site and square wave electroporation (ElectroSquarePorator 833, BTX-2 Needle array 5mm gap, Harvard apparatus) delivered as eight pulses at 106V for 20 ms with 200 ms intervals. […] Equally sized areas were analyzed using Living Image 2.20 software. […]

## Cl.Cl.N#Cc1ccc(/C=C2/C(=O)/C(=C/c3ccc(C#N)cc3)C23CCN(C(=N)N)CC3)cc1 [RA475, 1,3-bis((E)-4-cyanobenzylidene)-2-oxo-7-azaspiro[3.5]nonane-7-carboximidamide dihydrochloride]
  4UbFL bioluminescence signal: dose dependent increases in bioluminescence signal
